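Step 1: Grow cells in 96-well plates. Step 2: Expose to compound for 48 hours at 5 concentrations. Step 3: Interpolate endpoints linearly; if unreached, use highest concentration. GI50 = concentration required for 50% inhibition of growth.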 The source made the active and inactive calls. Cut-off read from the data, not from the text of the source: active = GI50 up to about 1.1 µM and inactive = higher.
Legend:
Assay in all cases: growth of human tumour cells (NCI), 48 h
SNB-19 = test system: SNB-19
HCT-116 = test system: HCT-116
KM12 = test system: KM12
TK-10 = test system: TK-10
A498 = test system: A498
U-251 = test system: U-251
LOX IMVI = test system: LOX IMVI
Malme-3M = test system: Malme-3M
SK-OV-3 = test system: SK-OV-3
786-0 = test system: 786-0
SK-MEL-5 = test system: SK-MEL-5
A549 = test system: A549
PC-3 = test system: PC-3
NCI-H460 = test system: NCI-H460
DU-145 = test system: DU-145
RPMI-8226 = test system: RPMI-8226
NCI-H522 = test system: NCI-H522
SK-MEL-28 = test system: SK-MEL-28
T47D = test system: T47D

Measured: GI50

CC1(C)OC[C@@H]([C@H](O)C2C=CC(=O)S2)O1 (stereo partly drawn)
inactive: SNB-19 43.6 µM | HCT-116 14.3 µM | KM12 14.6 µM | TK-10 44.9 µM | A498 21.4 µM | U-251 27.7 µM | LOX IMVI 15.7 µM | Malme-3M 18.1 µM | SK-OV-3 34.6 µM | 786-0 22.9 µM | SK-MEL-5 18.7 µM | A549 29.6 µM | PC-3 34 µM | NCI-H460 28.2 µM | DU-145 21.2 µM | RPMI-8226 18.4 µM

N#C/C(=C\c1cc(Br)c(O)c(Br)c1)c1ccccn1
inactive: SNB-19 46.1 µM | HCT-116 > 100 µM | KM12 39.1 µM | TK-10 80.2 µM | U-251 22.9 µM | Malme-3M 23.6 µM | SK-OV-3 32.5 µM | NCI-H522 64.9 µM | 786-0 49.5 µM | SK-MEL-28 82 µM | SK-MEL-5 41 µM | A549 59.6 µM | PC-3 29.1 µM | NCI-H460 48.6 µM | DU-145 > 100 µM | RPMI-8226 73.5 µM

CCOC(=O)Cc1c(C)c2ccc(OC(C)=O)c(OC(C)=O)c2oc1=O
inactive: SNB-19 13.3 µM | HCT-116 34 µM | KM12 32.7 µM | TK-10 20.9 µM | A498 44.1 µM | U-251 23.1 µM | LOX IMVI 25.3 µM | Malme-3M 12.3 µM | SK-OV-3 > 100 µM | 786-0 27.7 µM | SK-MEL-28 21.3 µM | SK-MEL-5 19.5 µM | A549 21.9 µM | PC-3 23.3 µM | DU-145 24.9 µM | RPMI-8226 18.3 µM

CC1(C)C(=O)C=CC2(C)C1CC(O)C1(C)C2CCC2(C)C(c3ccoc3)OC(=O)C3OC321 (stereo not drawn)
inactive: SNB-19 18.9 µM | HCT-116 15.3 µM | KM12 14.9 µM | TK-10 16 µM | A498 15.3 µM | U-251 17.4 µM | LOX IMVI 15.7 µM | SK-OV-3 23.7 µM | NCI-H522 11.5 µM | 786-0 12.2 µM | SK-MEL-28 24.8 µM | SK-MEL-5 6.43 µM | A549 19.2 µM | PC-3 31.6 µM | NCI-H460 13.6 µM | DU-145 16.4 µM | RPMI-8226 18.5 µM

O=C(c1cccc2ccccc12)C1S(=O)(=O)OCCOS1(=O)=O
inactive: SNB-19 > 100 µM | HCT-116 > 100 µM | KM12 > 100 µM | TK-10 > 100 µM | U-251 > 100 µM | Malme-3M > 100 µM | 786-0 > 100 µM | SK-MEL-28 > 100 µM | SK-MEL-5 > 100 µM | A549 > 100 µM | PC-3 > 100 µM | NCI-H460 > 100 µM | DU-145 > 100 µM | RPMI-8226 > 100 µM

COc1ccc2c(c1O)[C@@]13CCCC=C1[C@@H](C2)[N+](C)(C)CC3
inactive: SNB-19 > 100 µM | HCT-116 > 100 µM | KM12 > 100 µM | TK-10 > 100 µM | T47D > 100 µM | U-251 > 100 µM | LOX IMVI > 100 µM | Malme-3M > 100 µM | SK-OV-3 > 100 µM | NCI-H522 63 µM | 786-0 > 100 µM | SK-MEL-28 > 100 µM | SK-MEL-5 91.4 µM | A549 > 100 µM | PC-3 > 100 µM | NCI-H460 > 100 µM | DU-145 > 100 µM

O=c1c2ccccc2nc(Cc2nc(-c3ccc(Cl)cc3)cs2)n1-c1ccc(Cl)cc1
inactive: SNB-19 > 100 µM | HCT-116 37.2 µM | KM12 41.8 µM | TK-10 > 100 µM | A498 68.1 µM | U-251 54.5 µM | LOX IMVI 50.2 µM | Malme-3M > 100 µM | SK-OV-3 > 100 µM | NCI-H522 > 100 µM | 786-0 81.3 µM | SK-MEL-28 23.8 µM | SK-MEL-5 34.4 µM | A549 50.6 µM | PC-3 48 µM | NCI-H460 46.2 µM | DU-145 55.8 µM | RPMI-8226 23.8 µM

CC(C(=O)O)c1ccc(-c2ccccc2)c(F)c1 (stereo not drawn) [FLURBIPROFEN]
inactive: SNB-19 > 100 µM | HCT-116 > 100 µM | KM12 > 100 µM | TK-10 > 100 µM | T47D > 100 µM | U-251 > 100 µM | LOX IMVI > 100 µM | Malme-3M > 100 µM | SK-OV-3 > 100 µM | NCI-H522 > 100 µM | 786-0 > 100 µM | SK-MEL-28 > 100 µM | SK-MEL-5 > 100 µM | A549 > 100 µM | PC-3 > 100 µM | NCI-H460 > 100 µM | DU-145 > 100 µM | RPMI-8226 > 100 µM

Clc1ccc(OCc2nnc3n2N=C(c2ccccc2)CS3)cc1
inactive: SNB-19 18.7 µM | HCT-116 11.2 µM | KM12 15.9 µM | TK-10 27.3 µM | U-251 17.9 µM | LOX IMVI 17 µM | Malme-3M 17.9 µM | SK-OV-3 20.7 µM | NCI-H522 17.4 µM | 786-0 16.2 µM | SK-MEL-28 21.8 µM | A549 16.4 µM | NCI-H460 16.8 µM | RPMI-8226 10.8 µM

Cc1cccc(C)c1NC(=O)CCC(=O)/N=C(\N)NC#N
inactive: SNB-19 > 100 µM | HCT-116 > 100 µM | KM12 > 100 µM | TK-10 > 100 µM | A498 > 100 µM | U-251 > 100 µM | LOX IMVI > 100 µM | Malme-3M > 100 µM | SK-OV-3 > 100 µM | NCI-H522 > 100 µM | 786-0 > 100 µM | SK-MEL-28 77.8 µM | SK-MEL-5 > 100 µM | A549 > 100 µM | NCI-H460 > 100 µM | RPMI-8226 > 100 µM

C[C@@H]1CC(=O)C[C@@H]2CC[C@H]3[C@@H]4CC[C@H](OC(=O)c5cccc6cc7ccccc7nc56)[C@H]4CC[C@@H]3[C@H]21
inactive: SNB-19 17.7 µM | HCT-116 14.1 µM | KM12 14.3 µM | TK-10 27.9 µM | T47D 13.7 µM | U-251 7.11 µM | LOX IMVI 15.6 µM | Malme-3M 8.71 µM | SK-OV-3 25.2 µM | NCI-H522 5.6 µM | 786-0 11.4 µM | SK-MEL-28 28.6 µM | SK-MEL-5 13.2 µM | A549 25.1 µM | PC-3 12.1 µM | NCI-H460 14.1 µM | DU-145 14 µM

C/C(=C\Cc1ccc(F)cc1)CCCCCC/C(C)=C/Cc1ccc(F)cc1
inactive: SNB-19 32.9 µM | HCT-116 15.8 µM | KM12 2.25 µM | TK-10 15.5 µM | U-251 18.1 µM | LOX IMVI 3.91 µM | SK-OV-3 37.8 µM | NCI-H522 6.59 µM | 786-0 7.13 µM | SK-MEL-5 12.1 µM | A549 3.65 µM | PC-3 15.8 µM | NCI-H460 4.71 µM | DU-145 14.2 µM

N#C[C@H]1Nc2ccccc2[C@@H](O)C1O (stereo partly drawn)
inactive: HCT-116 > 100 µM | KM12 > 100 µM | TK-10 > 100 µM | T47D > 100 µM | U-251 > 100 µM | LOX IMVI > 100 µM | Malme-3M > 100 µM | SK-OV-3 > 100 µM | 786-0 > 100 µM | SK-MEL-28 > 100 µM | SK-MEL-5 > 100 µM | A549 > 100 µM | PC-3 > 100 µM | NCI-H460 > 100 µM | DU-145 > 100 µM | RPMI-8226 > 100 µM

CC1(C)CC(=O)C(=CN2C(=O)CNC2=S)C(=O)C1
inactive: SNB-19 > 100 µM | HCT-116 > 100 µM | KM12 > 100 µM | TK-10 > 100 µM | U-251 > 100 µM | SK-OV-3 > 100 µM | NCI-H522 > 100 µM | 786-0 > 100 µM | SK-MEL-5 > 100 µM | A549 > 100 µM | PC-3 > 100 µM | NCI-H460 > 100 µM | DU-145 > 100 µM

O=c1s[s+]([O-])c2ccccc12 (stereo not drawn)
inactive: SNB-19 > 100 µM | HCT-116 > 100 µM | KM12 > 100 µM | A498 > 100 µM | U-251 > 100 µM | LOX IMVI 58.3 µM | Malme-3M > 100 µM | SK-OV-3 > 100 µM | NCI-H522 39.4 µM | 786-0 > 100 µM | SK-MEL-28 > 100 µM | SK-MEL-5 > 100 µM | A549 > 100 µM | PC-3 > 100 µM | NCI-H460 46.8 µM | DU-145 > 100 µM | RPMI-8226 62.1 µM

Cc1ccc(C)n1-c1ccccc1C1C=Cn2c3c1c(=O)c(OC(C)C)c(OC(C)C)c-3n[nH]c2=O (stereo not drawn)
inactive: SNB-19 76.2 µM | HCT-116 19.2 µM | KM12 19.9 µM | TK-10 44 µM | A498 > 100 µM | U-251 32.7 µM | LOX IMVI 25.9 µM | Malme-3M 18.7 µM | SK-OV-3 > 100 µM | NCI-H522 17 µM | 786-0 20.9 µM | SK-MEL-28 17.5 µM | SK-MEL-5 5.01 µM | A549 23.4 µM | PC-3 10.3 µM | NCI-H460 37.6 µM | DU-145 99.3 µM | RPMI-8226 8.3 µM

O=[N+]([O-])c1ccc(Cl)cc1N/N=C/c1cccc2cccnc12
inactive: SNB-19 31.3 µM | HCT-116 54 µM | KM12 > 100 µM | TK-10 > 100 µM | T47D > 100 µM | U-251 79.1 µM | SK-OV-3 > 100 µM | NCI-H522 > 100 µM | 786-0 > 100 µM | SK-MEL-28 > 100 µM | SK-MEL-5 > 100 µM | A549 > 100 µM | PC-3 > 100 µM | NCI-H460 > 100 µM | DU-145 > 100 µM | RPMI-8226 20.3 µM
